# Measurements as given in patent US20200071316A1, “ACTIVATORS OF THE RETINOIC ACID INDUCIBLE GENE "RIG-I" PATHWAY AND METHODS OF USE THEREOF” (Kineta Immuno-Oncology LLC, priority 2018, published 2020).
# Marks after values point to notes of the source that are not given here.
# Columns and labels:
# [1] = test system: RIG-I deficient CT26 RIG-1−/− cells; test: CXCL10 secretion in RIG-I deficient CT26 RIG-1−/− cells (ELISA); format: cell-based, murine; details: 24 h
# Protocol: (§1) The CT26 murine colon carcinoma cell line (ATCC) was used to evaluate the induction of CXCL10 secretion. CXCL10 is an important chemokine in tumor immune biology that recruits tumor-specific T cells to the tumor. To confirm that compound-mediated CXCL10 production was RIG-I specific, RIG-I deficient CT2-RIG-1−/− cells were generated by Kineta using CRISPR technology.
# (§2) CT26 cells were seeded at a density of 1×10^4 cells per well on a 96-well tissue culture plate in 100 μL of cell culture and cells were incubated at 37° C. and 5% CO2 for 24 hr. Next, CT26 cells were treated with compounds at the indicated concentrations. CXCL10 was quantified by ELISA from supernatants taken 24 h after compound stimulation by use of the CXCL10 DuoSet ELISA kit (Cat # DY466, R&D, Minneapolis, Minn., USA) according to the manufacturer's instructions.
# (§3) CXCL10 secretion by CT26 cells in response to compounds (in an amount of 5 to 20 μM) of the present disclosure is shown in Table 8. The compound-induced CXCL10 production was RIG-I dependent, since none of the compounds mediated CXCL10 secretion in RIG-I deficient CT26 RIG-1−/− cells. The compounds (10 μM, *20 μM, **5 μM) are indicated in the table as follows: “−” indicates less than 100 pg/mL; “+” indicates 100-199 pg/mL; “++” indicates 200-399 pg/mL; “+++” indicates 400-799 pg/mL; “++++” indicates 800 to 1599 pg/mL; “+++++” indicates greater than or equal to 1600 pg/ml.
# [2] = test system: CXCL10 secretion by CT26 cells; test: RIG-I dependent CXCL10 secretion by CT26 colon carcinoma cells (ELISA); format: cell-based, murine; details: 24 h
# Protocol: as §1, §2, §3
# [3] = test system: IRF3 signaling pathway (IRF-inducible ISG54 promotor) in THP1-Lucia ISG cells; test: THP1-Lucia ISG reporter assay: induction of IRF3-dependent luciferase activity; format: cell-based; details: Homo sapiens, PMA-differentiated cells, 18 h after stimulation, read-out: THP1 ISG: fold increase of IRF3-dependent luciferase activity over background; for fold induction at 10 µM: 10 μM compound
# Protocol: The compounds were evaluated in the THP1-Lucia™ ISG (interferon stimulated genes) reporter assay to determine if the compounds activate the IRF3 signaling pathway. The THP1-Lucia™ cells (InvivoGen) express the secreted luciferase (Lucia) reporter gene under the control of an IRF-inducible promotor. The reporter cell line was developed from human monocytic leukemia THP-1 cells.
# (§4) The promotor was comprised of five IFN-stimulated response elements (ISRE) fused to an ISG54 minimal promotor which is unresponsive to NF-kB or AP-1 pathways. […] The IRF3-deficient THP1-Lucia™ ISG IRF3 −/− reporter cell line was generated by CRISPR technology from the parent THP1-Lucia™ ISG reporter cell line.
# (§5) 5 THP1-Lucia™ ISG cells and IRF3-deficient THP1-Lucia™ ISG IRF3 −/− cells were differentiated with PMA (100 ng/ml) and stimulated with compounds at the indicated concentrations (5 to 20 μM), positive control, or not treated (background). Luciferase secretion was quantified using the QUANTI-Luc luciferase assay system (InvivoGen) 18 h after stimulation. Data are shown as fold increase luciferase activity over background in Table 7 and represent the IRF3-dependent ISG54 promotor activity by the THP1-Lucia™ ISG cells in response to compounds. […] The fold increase of compounds (10 μM, *20 μM, **5 μM) induced IRF3 dependent luciferase activity is indicated as follows: “−” indicates less than 2.4 fold increase; “+” indicates a 2.4-4.9 fold increase; “++” indicates a 5-9.9 fold increase; “+++” indicates a 10-19 fold increase; “++++” indicates a 20-39 fold increase; “+++++” indicates greater than or equal to 40 fold increase.
# [4] = test system: THP1-Lucia ISG IRF3 −/− cells; test: IRF3-deficient THP1-Lucia ISG IRF3 −/− reporter assay (counter-screen); format: cell-based; details: Homo sapiens, 18 h after stimulation, read-out: THP1 ISG IRF3 −/−: fold increase of luciferase activity over background; for fold induction at 10 µM: 10 μM compound
# Protocol: as §4, §5
Compound,CXCL10 secretion by CT26 RIG-I −/− cells ([1]; 10 μM compound),CXCL10 secretion by CT26 cells ([2]; 10 μM compound),fold induction at 10 µM [3],fold induction at 10 µM [4],further results
"O=C(Nc1nc2ccc(OCC(F)(F)F)cc2s1)c1ccc2ccccc2c1 [Example 5, N-[6-(2,2,2-trifluoroethoxy)-1,3-benzothiazol-2-yl]naphthalene-2-carboxamide]",− (“−” indicates less than 100 pg/mL),+++ (“+++” indicates 400-799 pg/mL),2.4 to 4.9,< 2.4,–
"O=C(Nc1nc2ccc(S(=O)(=O)N3CCCC3)cc2s1)c1cc2ccsc2cc1OCCN1CCOCC1 [Example 39, 6-[2-(morpholin-4-yl)ethoxy]-N-[6-(pyrrolidine-1-sulfonyl)-1,3-benzothiazol-2-yl]-1-benzothiophene-5-carboxamide]",− (“−” indicates less than 100 pg/mL),++ (“++” indicates 200-399 pg/mL),20 to 39,< 2.4,–
"O=C(Nc1nc2ccc(S(=O)(=O)N3CCOCC3)cc2s1)c1cc2ccccc2cc1OCCN1CCOCC1 [Example 16, 3-[2-(morpholin-4-yl)ethoxy]-N-[6-(morpholine-4-sulfonyl)-1,3-benzothiazol-2-yl]naphthalene-2-carboxamide]",− (“−” indicates less than 100 pg/mL),++++ (“++++” indicates 800 to 1599 pg/mL),20 to 39,< 2.4,–
"O=C(Nc1nc2ccc(S(=O)(=O)N3CC4(COC4)C3)cc2s1)c1cc2ccccc2cc1OCCN1CCOCC1 [Example 65, 3-[2-(morpholin-4-yl)ethoxy]-N-(6-{2-oxa-6-azaspiro[3.3]heptane-6-sulfonyl}-1,3-benzothiazol-2-yl)naphthalene-2-carboxamide]",− (“−” indicates less than 100 pg/mL),+ (“+” indicates 100-199 pg/mL),2.4 to 4.9,< 2.4,–
"Cn1ccc2cc(OCCN3CCOCC3)c(C(=O)Nc3nc4ccc(S(=O)(=O)N5CCCC5)cc4s3)cc21 [Example 67, 1-methyl-5-[2-(morpholin-4-yl)ethoxy]-N-[6-(pyrrolidine-1-sulfonyl)-1,3-benzothiazol-2-yl]-1H-indole-6-carboxamide]",− (“−” indicates less than 100 pg/mL),++++ (“++++” indicates 800 to 1599 pg/mL),20 to 39,< 2.4,–
"O=C(Nc1nc2ccc(S(=O)(=O)N3CCCC3)cc2s1)c1cc2c(cc1OCCN1CCOCC1)OCO2 [Example 40, 6-[2-(morpholin-4-yl)ethoxy]-N-[6-(pyrrolidine-1-sulfonyl)-1,3-benzothiazol-2-yl]-2H-1,3-benzodioxole-5-carboxamide]",–,–,–,–,CXCL10 secretion by CT26 RIG-I −/− cells ([1]; 5 μM compound (**)): −** (“−” indicates less than 100 pg/mL); CXCL10 secretion by CT26 cells ([2]; 5 μM compound (**)): ++** (“++” indicates 200-399 pg/mL); fold induction at 20 µM ([3]; 20 μM compound (*)): 2.4 to 4.9; fold induction at 20 µM ([4]; 20 μM compound (*)): < 2.4
"O=C(Nc1nc2ccc(S(=O)(=O)N3CCCC3)cc2s1)c1cc2c(cc1OCCCCN1CCOCC1)OCO2 [Example 43, 6-[4-(morpholin-4-yl)butoxy]-N-[6-(pyrrolidine-1-sulfonyl)-1,3-benzothiazol-2-yl]-2H-1,3-benzodioxole-5-carboxamide]",− (“−” indicates less than 100 pg/mL),++++ (“++++” indicates 800 to 1599 pg/mL),5 to 9.9,< 2.4,–
"O=C(Nc1nc2ccc(S(=O)(=O)N3CCOCC3)cc2s1)c1ccc2ccccc2c1 [Example 3, N-[6-(morpholine-4-sulfonyl)-1,3-benzothiazol-2-yl]naphthalene-2-carboxamide]",− (“−” indicates less than 100 pg/mL),+++ (“+++” indicates 400-799 pg/mL),10 to 19,< 2.4,–
"O=C(Nc1nc2ccc(OCC(F)(F)F)cc2s1)c1cc2ccccc2cc1OCCCCN1CCOCC1 [Example 58, 3-[4-(morpholin-4-yl)butoxy]-N-[6-(2,2,2-trifluoroethoxy)-1,3-benzothiazol-2-yl]naphthalene-2-carboxamide]",− (“−” indicates less than 100 pg/mL),++ (“++” indicates 200-399 pg/mL),5 to 9.9,< 2.4,–
"O=C(Nc1nc2ccc(S(=O)(=O)N3CCC3)cc2s1)c1ccc(-c2ccccc2)cc1 [Example 50, N-[6-(azetidine-1-sulfonyl)-1,3-benzothiazol-2-yl]-[1,1′-biphenyl]-4-carboxamide]",− (“−” indicates less than 100 pg/mL),+++++ (“+++++” indicates greater than or equal to 1600 pg/ml),5 to 9.9,< 2.4,–
"O=C(Nc1nc2ccc([N+](=O)[O-])cc2s1)c1cc2ccccc2cc1OCCN1CCOCC1 [Example 20, 3-[2-(morpholin-4-yl)ethoxy]-N-(6-nitro-1,3-benzothiazol-2-yl)naphthalene-2-carboxamide]",–,–,10 to 19,< 2.4,CXCL10 secretion by CT26 RIG-I −/− cells ([1]; 5 μM compound (**)): −** (“−” indicates less than 100 pg/mL); CXCL10 secretion by CT26 cells ([2]; 5 μM compound (**)): +** (“+” indicates 100-199 pg/mL)
"COC(=O)c1ccc2nc(NC(=O)c3cc4ccccc4cc3OCCN3CCOCC3)sc2c1 [Example 69, methyl 2-{3-[2-(morpholin-4-yl)ethoxy]naphthalene-2-amido}-1,3-benzothiazole-6-carboxylate]",–,–,–,–,CXCL10 secretion by CT26 RIG-I −/− cells ([1]; 5 μM compound (**)): −** (“−” indicates less than 100 pg/mL); CXCL10 secretion by CT26 cells ([2]; 5 μM compound (**)): ++** (“++” indicates 200-399 pg/mL); fold induction at 5 µM ([3]; 5 μM compound (**)): 5 to 9.9; fold induction at 5 µM ([4]; 5 μM compound (**)): < 2.4
"Cn1c(C(=O)Nc2nc3ccc(S(=O)(=O)N4CCCC4)cc3s2)cc2ccccc21 [Example 52, 1-methyl-N-[6-(pyrrolidine-1-sulfonyl)-1,3-benzothiazol-2-yl]-1H-indole-2-carboxamide]",–,–,10 to 19,< 2.4,CXCL10 secretion by CT26 RIG-I −/− cells ([1]; 20 μM compound (*)): −* (“−” indicates less than 100 pg/mL); CXCL10 secretion by CT26 cells ([2]; 20 μM compound (*)): +* (“+” indicates 100-199 pg/mL)
"O=C(Nc1nc2ccc(S(=O)(=O)N3CCCC3)cc2s1)c1ccc(-c2ccccc2)cc1OCCCCN1CCOCC1 [Example 41, 3-[4-(morpholin-4-yl)butoxy]-N-[6-(pyrrolidine-1-sulfonyl)-1,3-benzothiazol-2-yl]-[1,1′-biphenyl]-4-carboxamide]",− (“−” indicates less than 100 pg/mL),+++++ (“+++++” indicates greater than or equal to 1600 pg/ml),20 to 39,< 2.4,–
"O=C(Nc1ccccn1)c1ccc2nc(NC(=O)c3ccc4ccccc4c3)sc2c1 [Example 14, 2-(naphthalene-2-amido)-N-(pyridin-2-yl)-1,3-benzo-thiazole-6-carboxamide]",− (“−” indicates less than 100 pg/mL),++++ (“++++” indicates 800 to 1599 pg/mL),20 to 39,< 2.4,–
